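Five concentrations, 48 hours, 96-well plates. GI50: concentration for 50% inhibition of growth.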 Calls of active or inactive are those of the source. Cut-off read from the data, not from the text of the source: active = GI50 up to about 1.1 µM and inactive = higher.
Tests used:
Experiment in all cases: DTP human tumour cell line panel, 48 h
A498 = test system: A498
A549 = test system: A549
CAKI-1 = test system: CAKI-1
CCRF-CEM = test system: CCRF-CEM
COLO 205 = test system: COLO 205
DLD-1 = test system: DLD-1
DMS-114 = test system: DMS-114
DMS-273 = test system: DMS-273
EKVX = test system: EKVX
HCC 2998 = test system: HCC 2998
HCT-116 = test system: HCT-116
HCT-15 = test system: HCT-15
HL-60 = test system: HL-60
HOP-18 = test system: HOP-18
HOP-62 = test system: HOP-62
HOP-92 = test system: HOP-92
HT-29 = test system: HT-29
IGROV-1 = test system: IGROV-1
K562 = test system: K562
KM-20L2 = test system: KM-20L2
KM12 = test system: KM12
LOX IMVI = test system: LOX IMVI
MCF7 = test system: MCF7
MOLT-4 = test system: MOLT-4
Malme-3M = test system: Malme-3M
NCI-H226 = test system: NCI-H226
NCI-H23 = test system: NCI-H23
NCI-H460 = test system: NCI-H460
NCI-H522 = test system: NCI-H522
NCI/ADR-RES = test system: NCI/ADR-RES
OVCAR-3 = test system: OVCAR-3
OVCAR-4 = test system: OVCAR-4
OVCAR-5 = test system: OVCAR-5
OVCAR-8 = test system: OVCAR-8
RPMI-8226 = test system: RPMI-8226
RXF 393 = test system: RXF 393
SF-268 = test system: SF-268
SF-295 = test system: SF-295
SF-539 = test system: SF-539
SK-MEL-28 = test system: SK-MEL-28
SK-MEL-2 = test system: SK-MEL-2
SK-MEL-5 = test system: SK-MEL-5
SK-OV-3 = test system: SK-OV-3
SN12C = test system: SN12C
SNB-19 = test system: SNB-19
SNB-75 = test system: SNB-75
SNB-78 = test system: SNB-78
SW-620 = test system: SW-620
U-251 = test system: U-251
UACC-257 = test system: UACC-257
UACC-62 = test system: UACC-62
UO-31 = test system: UO-31
XF498 = test system: XF498
M19-MEL = test system: M19-MEL

With `O=P1(Oc2ccc(Cl)cc2Cl)Oc2cc3ccccc3cc2O1` as the compound, how does the GI50 (A498) read?
The GI50 was 29.1 µM (inactive).

And the GI50 (A549)?
Its GI50 is 66.2 µM (inactive).

And the GI50 (CAKI-1)?
The GI50 was > 71.8 µM (inactive).

And the GI50 (CCRF-CEM)?
Its GI50 is 35.5 µM (inactive).

And the GI50 (COLO 205)?
Its GI50 is 97.9 µM (inactive).

And the GI50 (DLD-1)?
The GI50 was 56.8 µM (inactive).

And the GI50 (DMS-114)?
Its GI50 is 27.5 µM (inactive).

And the GI50 (DMS-273)?
Its GI50 is 59.6 µM (inactive).

What about the GI50 (EKVX) of the same compound?
The GI50 was 33.9 µM (inactive).

What about the GI50 (HCC 2998) of the same compound?
Its GI50 is 20.8 µM (inactive).

What about the GI50 (HCT-116) of the same compound?
Its GI50 is > 78.2 µM (inactive).

And the GI50 (HCT-15)?
The GI50 was 50 µM.

What about the GI50 (HL-60) of the same compound?
The GI50 was 21.5 µM (inactive).

What about the GI50 (HOP-18) of the same compound?
Its GI50 is 62.2 µM (inactive).

What about the GI50 (HOP-62) of the same compound?
Its GI50 is 71.8 µM (inactive).

And the GI50 (HOP-92)?
Its GI50 is 28.5 µM (inactive).

And the GI50 (HT-29)?
The GI50 was > 72.9 µM (inactive).

And the GI50 (IGROV-1)?
The GI50 was 64.7 µM (inactive).

And the GI50 (K562)?
Its GI50 is 46.2 µM (inactive).

And the GI50 (KM-20L2)?
Its GI50 is > 100 µM (inactive).

What about the GI50 (KM12) of the same compound?
The GI50 was 43.8 µM (inactive).

What about the GI50 (LOX IMVI) of the same compound?
Its GI50 is 68.9 µM (inactive).

And the GI50 (MCF7)?
Its GI50 is 31.8 µM (inactive).

What about the GI50 (MOLT-4) of the same compound?
Its GI50 is 23.5 µM (inactive).

And the GI50 (Malme-3M)?
Its GI50 is > 100 µM (inactive).

And the GI50 (NCI-H226)?
Its GI50 is > 76.6 µM (inactive).

And the GI50 (NCI-H23)?
The GI50 was 43.9 µM (inactive).

And the GI50 (NCI-H460)?
Its GI50 is 49.9 µM (inactive).

What about the GI50 (NCI-H522) of the same compound?
Its GI50 is 26.5 µM (inactive).

And the GI50 (NCI/ADR-RES)?
Its GI50 is 84.1 µM (inactive).

And the GI50 (OVCAR-3)?
The GI50 was 28.4 µM (inactive).

And the GI50 (OVCAR-4)?
The GI50 was 76 µM (inactive).

What about the GI50 (OVCAR-5) of the same compound?
The GI50 was > 100 µM (inactive).

And the GI50 (OVCAR-8)?
Its GI50 is 69 µM (inactive).

And the GI50 (RPMI-8226)?
The GI50 was 18.8 µM (inactive).

What about the GI50 (RXF 393) of the same compound?
Its GI50 is > 58.9 µM (inactive).

What about the GI50 (SF-268) of the same compound?
Its GI50 is > 100 µM (inactive).

And the GI50 (SF-295)?
The GI50 was 59.3 µM (inactive).

What about the GI50 (SF-539) of the same compound?
Its GI50 is > 84.9 µM (inactive).

What about the GI50 (SK-MEL-28) of the same compound?
Its GI50 is > 100 µM (inactive).

What about the GI50 (SK-MEL-2) of the same compound?
The GI50 was 81.1 µM (inactive).

What about the GI50 (SK-MEL-5) of the same compound?
Its GI50 is 59 µM (inactive).

And the GI50 (SK-OV-3)?
The GI50 was > 100 µM (inactive).

What about the GI50 (SN12C) of the same compound?
The GI50 was > 94.4 µM (inactive).

And the GI50 (SNB-19)?
Its GI50 is > 100 µM (inactive).

And the GI50 (SNB-75)?
Its GI50 is 70.8 µM (inactive).

What about the GI50 (SNB-78) of the same compound?
The GI50 was > 100 µM (inactive).

What about the GI50 (SW-620) of the same compound?
Its GI50 is 70.1 µM (inactive).

What about the GI50 (U-251) of the same compound?
Its GI50 is 81.7 µM (inactive).

What about the GI50 (UACC-257) of the same compound?
The GI50 was > 100 µM (inactive).

And the GI50 (UACC-62)?
Its GI50 is 43.7 µM (inactive).

What about the GI50 (UO-31) of the same compound?
Its GI50 is 24.9 µM (inactive).

And the GI50 (XF498)?
The GI50 was 33.1 µM (inactive).

Which results are given for `CC1=C(O)C(=O)[C@@H]2O[C@@H]2C1=O`?
GI50 (A498): 7.13 µM (inactive); GI50 (A549): 27.3 µM (inactive); GI50 (CAKI-1): 5.69 µM (inactive); GI50 (CCRF-CEM): 1.6 µM (inactive); GI50 (COLO 205): 4.72 µM (inactive); GI50 (DLD-1): 7.28 µM (inactive); GI50 (DMS-114): 10.3 µM (inactive); GI50 (DMS-273): 22.8 µM (inactive); GI50 (EKVX): 14.7 µM (inactive); GI50 (HCC 2998): 15.2 µM (inactive); GI50 (HCT-116): 7.36 µM (inactive); GI50 (HCT-15): 7.01 µM; GI50 (HL-60): 2.2 µM (inactive); GI50 (HOP-18): 12.5 µM (inactive); GI50 (HOP-62): 35.3 µM (inactive); GI50 (HOP-92): 5.57 µM (inactive); GI50 (HT-29): 12.1 µM (inactive); GI50 (IGROV-1): 20.1 µM (inactive); GI50 (K562): 5.64 µM (inactive); GI50 (KM-20L2): 17.2 µM (inactive); GI50 (KM12): 14.1 µM (inactive); GI50 (LOX IMVI): 12.5 µM (inactive); GI50 (M19-MEL): 11.2 µM (inactive); GI50 (MCF7): 10 µM (inactive); GI50 (MOLT-4): 2.97 µM (inactive); GI50 (Malme-3M): 6.14 µM (inactive); GI50 (NCI-H226): 14.5 µM (inactive); GI50 (NCI-H23): 12.7 µM (inactive); GI50 (NCI-H460): 19 µM (inactive); GI50 (NCI-H522): 2 µM (inactive); GI50 (NCI/ADR-RES): 10.7 µM (inactive); GI50 (OVCAR-3): 6.5 µM (inactive); GI50 (OVCAR-4): 14.6 µM (inactive); GI50 (OVCAR-5): 16.3 µM (inactive); GI50 (OVCAR-8): 4.79 µM (inactive); GI50 (RPMI-8226): 3.46 µM (inactive); GI50 (RXF 393): 2.84 µM (inactive); GI50 (SF-268): 14.2 µM (inactive); GI50 (SF-295): 28.2 µM (inactive); GI50 (SF-539): 15.9 µM (inactive); GI50 (SK-MEL-28): 5.98 µM (inactive); GI50 (SK-MEL-2): 16 µM (inactive); GI50 (SK-MEL-5): 16.1 µM (inactive); GI50 (SK-OV-3): 33.4 µM (inactive); GI50 (SN12C): 19.3 µM (inactive); GI50 (SNB-19): 32.8 µM (inactive); GI50 (SNB-75): 17.4 µM (inactive); GI50 (SNB-78): 15.6 µM (inactive); GI50 (SW-620): 3.65 µM (inactive); GI50 (U-251): 19.4 µM (inactive); GI50 (UACC-257): 11.1 µM (inactive); GI50 (UACC-62): 8.49 µM (inactive); GI50 (UO-31): 22.3 µM (inactive); GI50 (XF498): 10.4 µM (inactive)
